Where two headings read alike, the source gives them in different places. Starred links: 1 amine or outer side, 2 acyl side, 3 side chain; linkers in the order of their positions; H or OH if unused. Positions of bridges follow the written chain, without caps; N, C: chain ends. Non-standard residues stand in square brackets, D forms with d. Residues, ends and D or L forms follow the SMILES beside them. Pen = CC(C)(S)[C@H](N)C(=O)O; hCys = N[C@@H](CCS)C(=O)O; Dab = NCC[C@H](N)C(=O)O; Dap = NC[C@H](N)C(=O)O; X1 = O=C(C[*:2])[*:1]; X2 = O=C(C[*:1])[*:2]
Key:
[1] = molecular target: human integrin αvβ5 (Homo sapiens, UniProt P06756+P18084); assay: Evaluation of integrin binding property (surface plasmon resonance, Biacore 3000, immobilized cyclic peptide)
Procedure, shortened: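 Human αvβ5 (30-1,000 nM) flowed for 10 min at 25 °C over immobilized cyclic peptide in 20 mM HEPES, 150 mM NaCl, 5 mM MgCl2, pH 7.4, followed by 30 min running buffer and 0.5 M EDTA regeneration. Dissociation constant from peptide minus unimmobilized channel, scored into standard grades.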

[2] = Evaluation of molecule stability (alkali treatment, residual rate by LC/MS); type: physicochemical; details: for Stability (molecule stability, residual rate of the cyclic peptide rank): alkali treatment, residual rate by LC/MS; for Performance evaluation: Stability (residual rate of cyclic peptide after alkali treatment): 500 μM peptide aqueous solution plus equivalent of 1 M sodium hydroxide, 15° C., 3 hours, LC/MS peak area
Procedure, shortened: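 Stability read as percent of summed LC/MS peak area remaining versus untreated peptide (C18, 45 °C, 10 mM ammonium formate pH 3, ESI positive/negative). Treatment: 500 μM peptide in water plus an equivalent of 1 M NaOH, 15 °C for 3 hours.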

[3] = surface plasmon resonance, immobilized cyclic peptide, human integrin αvβ5, read-out: Binding activity (integrin binding property, dissociation constant rank)
[4] = SPR, 25° C., HEPES buffer with 5 mM magnesium chloride, integrin 30-1,000 nM, read-out: Performance evaluation: Binding activity (dissociation constant between the cyclic peptide and human integrin αvβ5)

Chain of human integrin αvβ5 (P06756 31-1048): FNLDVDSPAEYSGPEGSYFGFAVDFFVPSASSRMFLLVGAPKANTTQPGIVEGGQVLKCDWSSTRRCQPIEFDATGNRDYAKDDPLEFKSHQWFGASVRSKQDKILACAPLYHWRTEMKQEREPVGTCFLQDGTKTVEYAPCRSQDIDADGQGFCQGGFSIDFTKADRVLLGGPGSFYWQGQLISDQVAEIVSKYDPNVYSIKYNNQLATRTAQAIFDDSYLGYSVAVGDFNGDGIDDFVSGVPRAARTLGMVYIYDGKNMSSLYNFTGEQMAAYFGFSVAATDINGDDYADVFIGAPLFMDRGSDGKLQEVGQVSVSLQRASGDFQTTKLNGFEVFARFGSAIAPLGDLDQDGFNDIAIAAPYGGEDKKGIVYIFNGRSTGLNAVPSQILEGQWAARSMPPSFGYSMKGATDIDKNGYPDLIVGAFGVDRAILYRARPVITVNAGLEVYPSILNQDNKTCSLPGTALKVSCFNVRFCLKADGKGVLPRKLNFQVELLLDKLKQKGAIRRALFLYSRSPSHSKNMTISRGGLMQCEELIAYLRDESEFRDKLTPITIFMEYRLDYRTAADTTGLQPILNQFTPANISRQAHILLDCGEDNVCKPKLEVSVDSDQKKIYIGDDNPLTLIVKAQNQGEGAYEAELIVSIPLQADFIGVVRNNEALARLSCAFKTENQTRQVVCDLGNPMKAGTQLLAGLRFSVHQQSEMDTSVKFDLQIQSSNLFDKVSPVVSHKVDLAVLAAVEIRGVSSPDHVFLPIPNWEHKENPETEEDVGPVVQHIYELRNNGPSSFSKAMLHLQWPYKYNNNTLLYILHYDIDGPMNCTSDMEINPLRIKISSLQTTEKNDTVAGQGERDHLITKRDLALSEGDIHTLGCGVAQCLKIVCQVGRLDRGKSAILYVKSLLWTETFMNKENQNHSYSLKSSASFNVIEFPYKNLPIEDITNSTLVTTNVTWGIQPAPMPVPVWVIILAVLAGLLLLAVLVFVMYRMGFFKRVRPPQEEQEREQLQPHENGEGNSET
Chain of human integrin αvβ5 (P18084 24-799): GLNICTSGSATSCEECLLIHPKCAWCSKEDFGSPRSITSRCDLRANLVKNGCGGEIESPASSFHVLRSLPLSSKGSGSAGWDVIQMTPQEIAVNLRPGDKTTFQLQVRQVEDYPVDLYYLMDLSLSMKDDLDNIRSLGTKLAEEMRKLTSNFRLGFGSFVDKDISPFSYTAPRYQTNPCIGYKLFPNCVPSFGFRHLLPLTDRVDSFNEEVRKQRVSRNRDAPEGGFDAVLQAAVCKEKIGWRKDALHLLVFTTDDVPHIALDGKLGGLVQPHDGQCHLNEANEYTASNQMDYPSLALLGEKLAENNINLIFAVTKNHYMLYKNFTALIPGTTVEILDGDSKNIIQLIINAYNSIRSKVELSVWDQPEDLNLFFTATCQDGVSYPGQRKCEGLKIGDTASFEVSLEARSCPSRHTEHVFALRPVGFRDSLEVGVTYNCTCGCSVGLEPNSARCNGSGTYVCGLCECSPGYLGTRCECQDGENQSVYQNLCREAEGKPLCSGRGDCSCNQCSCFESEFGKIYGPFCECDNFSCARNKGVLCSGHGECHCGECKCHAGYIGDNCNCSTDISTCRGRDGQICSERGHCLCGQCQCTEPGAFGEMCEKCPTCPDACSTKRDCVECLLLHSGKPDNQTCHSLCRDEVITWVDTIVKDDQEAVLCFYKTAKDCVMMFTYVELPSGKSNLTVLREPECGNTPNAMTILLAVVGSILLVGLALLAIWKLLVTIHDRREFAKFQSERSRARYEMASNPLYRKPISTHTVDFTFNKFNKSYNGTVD

Row | Kd [1, 3] [nM] | Kd [1, 4] [nM] | SMILES | Stability (molecule stability, residual rate of the cyclic peptide rank) [2] | Performance evaluation: Stability (residual rate of cyclic peptide after alkali treatment) [2]
1 | < 50 |  | CC(C)[C@@H]1NC(=O)[C@@H](NC(=O)[C@H](C)N)CCSCC(=O)NCC[C@@H](C(=O)N[C@@H](C)C(=O)N[C@@H](CCCCN)C(=O)N[C@@H](CCCCN)C(=O)N[C@@H](CCCCN)C(=O)O)NC(=O)[C@H](C)NC(=O)[C@H](Cc2ccccc2)NC(=O)[C@H]([C@@H](C)O)NC(=O)[C@H](CC(=O)O)NC(=O)CNC(=O)[C@H](CCCNC(=N)N)NC(=O)[C@@H]2CCCN2C1=O [Cyclic peptide 109, A-(Hcy)-VPRGDTFA(Dab(acetyl))AKKK] (H-A[hCys]VPRGDTFA[Dab]AKKK-OH; linker 2-11 via X2) | A (The residual rate of the cyclic peptide is 70% or more.) | 
2 |  | 50 to 100 | N=C(N)NCCC[C@@H]1NC(=O)[C@H](Cc2ccc(O)cc2)NC(=O)[C@H](CC(N)=O)NC(=O)[C@H](CC(=O)O)NC(=O)CNC(=O)[C@H](CCCNC(=N)N)NC(=O)[C@@H]2CCCN2C(=O)[C@H](CCC(=O)O)NC(=O)[C@@H](NC(=O)[C@H](CCCCN)NC(=O)[C@H](CCCCN)NC(=O)[C@@H](N)CCCCN)CNC(=O)CSCC[C@@H](C(=O)O)NC1=O [Cyclic peptide 46, KKK(Dap(acetyl))EPRGDNYR-(Hcy)] (H-KKK[Dap]EPRGDNYR[hCys]-OH; linker 4-13 via X1) |  | B (The residual rate of the cyclic peptide is 50% or more and less than 70%.)
3 |  | < 50 | CC[C@H](C)[C@@H]1NC(=O)[C@@H](NC(=O)CNC(=O)[C@H](CCCCN)NC(=O)[C@H](CCCCN)NC(=O)[C@@H](N)CCCCN)CCSCC(=O)NCC[C@@H](C(=O)NCC(=O)O)NC(=O)[C@H](C)NC(=O)[C@H](Cc2ccccc2)NC(=O)[C@H]([C@@H](C)O)NC(=O)[C@H](CC(=O)O)NC(=O)CNC(=O)[C@H](CCCNC(=N)N)NC(=O)[C@@H]2CCCN2C1=O [Cyclic peptide 84, KKKG-(Hcy)-IPRGDTFA(Dab(acetyl))G] (H-KKKG[hCys]IPRGDTFA[Dab]G-OH; linker 5-14 via X2) |  | A (The residual rate of the cyclic peptide is 70% or more.)
4 |  | < 50 | CC(C)[C@@H]1NC(=O)[C@@H](NC(=O)[C@H](C)NC(=O)[C@H](CCCCN)NC(=O)[C@H](CCCCN)NC(=O)[C@@H](N)CCCCN)CCSCC(=O)NCC[C@@H](C(=O)N[C@@H](C)C(=O)O)NC(=O)[C@H](CCCNC(=N)N)NC(=O)[C@H](Cc2ccccc2)NC(=O)[C@H]([C@@H](C)O)NC(=O)[C@H](CC(=O)O)NC(=O)CNC(=O)[C@H](CCCNC(=N)N)NC(=O)[C@@H]2CCCN2C1=O [Cyclic peptide 74, KKKA-(Hcy)-VPRGDTFR(Dab(acetyl))A] (H-KKKA[hCys]VPRGDTFR[Dab]A-OH; linker 5-14 via X2) |  | A (The residual rate of the cyclic peptide is 70% or more.)
5 |  | 50 to 100 | CC[C@H](C)[C@@H]1NC(=O)[C@@H](NC(=O)[C@H](CCCCN)NC(=O)[C@H](CCCCN)NC(=O)[C@@H](N)CCCCN)CCSCC(=O)NCC[C@@H](C(=O)N[C@@H](C)C(=O)O)NC(=O)[C@H](Cc2ccccc2)NC(=O)[C@H](CC(N)=O)NC(=O)[C@H](CC(=O)O)NC(=O)CNC(=O)[C@H](CCCNC(=N)N)NC(=O)[C@@H]2CCCN2C1=O [Cyclic peptide 10, KKK-(Hcy)-IPRGDNF(Dab(acetyl))A] (H-KKK[hCys]IPRGDNF[Dab]A-OH; linker 4-12 via X2) |  | A (The residual rate of the cyclic peptide is 70% or more.)
6 |  | < 50 | CC(C)[C@@H]1NC(=O)[C@@H](NC(=O)CNC(=O)[C@H](CCCCN)NC(=O)[C@H](CCCCN)NC(=O)[C@@H](N)CCCCN)CCSCC(=O)NCC[C@@H](C(=O)N[C@@H](C)C(=O)O)NC(=O)[C@H](C)NC(=O)[C@H](Cc2ccccc2)NC(=O)[C@H](CO)NC(=O)[C@H](CC(=O)O)NC(=O)CNC(=O)[C@H](CCCNC(=N)N)NC(=O)[C@@H]2CCCN2C1=O [Cyclic peptide 98, KKKG-(Hcy)-VPRGDSFA(Dab(acetyl))A] (H-KKKG[hCys]VPRGDSFA[Dab]A-OH; linker 5-14 via X2) |  | A (The residual rate of the cyclic peptide is 70% or more.)
7 |  | 50 to 100 | CC[C@H](C)[C@@H]1NC(=O)[C@@H](NC(=O)CNC(=O)[C@H](CCCCN)NC(=O)[C@H](CCCCN)NC(=O)[C@@H](N)CCCCN)CCSCC(=O)NCC[C@@H](C(=O)N[C@@H](C)C(=O)O)NC(=O)[C@H](CCCNC(=N)N)NC(=O)[C@H](Cc2ccccc2)NC(=O)[C@H](CO)NC(=O)[C@H](CC(=O)O)NC(=O)CNC(=O)[C@H](CCCNC(=N)N)NC(=O)[C@@H]2CCCN2C1=O [Cyclic peptide 72, KKKG-(Hcy)-IPRGDSFR(Dab(acetyl))A] (H-KKKG[hCys]IPRGDSFR[Dab]A-OH; linker 5-14 via X2) |  | A (The residual rate of the cyclic peptide is 70% or more.)
8 | < 50 |  | C[C@@H]1NC(=O)[C@H](Cc2ccccc2)NC(=O)[C@H]([C@@H](C)O)NC(=O)[C@H](CC(=O)O)NC(=O)CNC(=O)[C@H](CCCNC(=N)N)NC(=O)[C@H]([C@@H](C)O)NC(=O)[C@H]([C@@H](C)O)NC(=O)[C@@H](NC(=O)[C@H](CCCCN)NC(=O)[C@H](CCCCN)NC(=O)[C@@H](N)CCCCN)CCSCC(=O)NCC[C@@H](C(=O)O)NC1=O [Cyclic peptide 155, KKK-(Hcy)-TTRGDTFA(Dab(acetyl))] (H-KKK[hCys]TTRGDTFA[Dab]-OH; linker 4-13 via X2) | A (The residual rate of the cyclic peptide is 70% or more.) | 
9 |  | < 50 | CC[C@H](C)[C@@H]1NC(=O)[C@@H](NC(=O)[C@H](CCCCN)NC(=O)[C@H](CCCCN)NC(=O)[C@@H](N)CCCCN)CCSCC(=O)NCC[C@@H](C(=O)O)NC(=O)[C@H](C)NC(=O)[C@H](Cc2ccccc2)NC(=O)[C@H]([C@@H](C)O)NC(=O)[C@H](CC(=O)O)NC(=O)CNC(=O)[C@H](CCCNC(=N)N)NC(=O)[C@@H]2CCCN2C1=O [Cyclic peptide 62, KKK-(Hcy)-IPRGDTFA(Dab(acetyl))] (H-KKK[hCys]IPRGDTFA[Dab]-OH; linker 4-13 via X2) |  | A (The residual rate of the cyclic peptide is 70% or more.)
10 |  | < 50 | CC(C)[C@@H]1NC(=O)[C@@H](NC(=O)CNC(=O)[C@H](CCCCN)NC(=O)[C@H](CCCCN)NC(=O)[C@@H](N)CCCCN)CCSCC(=O)NCC[C@@H](C(=O)NCC(=O)O)NC(=O)[C@H](C)NC(=O)[C@H](Cc2ccccc2)NC(=O)[C@H](CO)NC(=O)[C@H](CC(=O)O)NC(=O)CNC(=O)[C@H](CCCNC(=N)N)NC(=O)[C@@H]2CCCN2C1=O [Cyclic peptide 99, KKKG-(Hcy)-VPRGDSFA(Dab(acetyl))G] (H-KKKG[hCys]VPRGDSFA[Dab]G-OH; linker 5-14 via X2) |  | A (The residual rate of the cyclic peptide is 70% or more.)
11 | 50 to 100 |  | CC[C@H](C)[C@@H]1NC(=O)[C@@H](NC(=O)CNC(=O)[C@H](CCCCN)NC(=O)[C@H](CCCCN)NC(=O)[C@@H](N)CCCCN)CCCCNC(=O)CSC(C)(C)[C@@H](C(=O)N[C@@H](C)C(=O)O)NC(=O)[C@H](CCCNC(=N)N)NC(=O)[C@H](Cc2ccccc2)NC(=O)[C@H]([C@@H](C)O)NC(=O)[C@H](CC(=O)O)NC(=O)CNC(=O)[C@H](CCCNC(=N)N)NC(=O)[C@@H]2CCCN2C1=O [Cyclic peptide 135, KKKG(Lys(acetyl))IPRGDTFR-(Pen)-A] (H-KKKGKIPRGDTFR[Pen]A-OH; linker 5-14 via X1) | A (The residual rate of the cyclic peptide is 70% or more.) | 
12 | < 50 |  | CC(C)[C@@H]1NC(=O)[C@@H](NC(=O)[C@H](C)NC(=O)[C@H](CCCCN)NC(=O)[C@H](CCCCN)NC(=O)[C@@H](N)CCCCN)CCSCC(=O)NCC[C@@H](C(=O)NCC(=O)O)NC(=O)[C@H](C)NC(=O)[C@H](Cc2ccccc2)NC(=O)[C@H]([C@@H](C)O)NC(=O)[C@H](CC(=O)O)NC(=O)CNC(=O)[C@H](CCCNC(=N)N)NC(=O)[C@@H]2CCCN2C1=O [Cyclic peptide 107, KKKA-(Hcy)-VPRGDTFA(Dab(acetyl))G] (H-KKKA[hCys]VPRGDTFA[Dab]G-OH; linker 5-14 via X2) | A (The residual rate of the cyclic peptide is 70% or more.) | 
13 | < 50 |  | CC[C@H](C)[C@@H]1NC(=O)[C@@H](NC(=O)CNC(=O)[C@H](CCCCN)NC(=O)[C@H](CCCCN)NC(=O)[C@@H](N)CCCCN)CCNC(=O)CSCC[C@@H](C(=O)N[C@@H](C)C(=O)O)NC(=O)[C@H](CCCNC(=N)N)NC(=O)[C@H](Cc2ccccc2)NC(=O)[C@H]([C@@H](C)O)NC(=O)[C@H](CC(=O)O)NC(=O)CNC(=O)[C@H](CCCNC(=N)N)NC(=O)[C@@H]2CCCN2C1=O [Cyclic peptide 118, KKKG(Dab(acetyl))IPRGDTFR-(Hcy)-A] (H-KKKG[Dab]IPRGDTFR[hCys]A-OH; linker 5-14 via X1) | A (The residual rate of the cyclic peptide is 70% or more.) | 
